Experimental data published in patent US11440907B1 (Merck Patent GmbH, priority 2018, dated 2022).
Where two headings read alike, the source gives them in different places.

How the values were obtained:
[1] = system: β-catenin-TCF-mediated reporter transcription activity in Colo 205 cells; experiment: Colo 205 reporter assay (TCF/LEF promoter-driven firefly luciferase); format: cell-based; conditions: Colo 205 TCF/LEF luciferase reporter, 5 hours after compound addition, 384 well, read-out: Colo205 IC50
Text: The compounds of the invention described herein were screened using the assay procedure for β-catenin-TCF-mediated reporter transcription activity described below.
Reporter cell lines were generated by stably transfecting cells of cancer cell lines (e.g., colon cancer) with a plasmid reporter construct (From SABiosciences, a QIAGEN company) that includes TCF/LEF promoter driving expression of the firefly luciferase gene. TCF/LEF reporter constructs were made in which TCF/LEF promoter, a promoter with optimal number of TCF/LEF binding sites designed by SABiosciences, was linked upstream of the firefly luciferase gene. This construct could also include a puromycin resistance gene as a selectable marker. This construct could also be used to stably transfect Colo 205 cells, a colon cancer cell line having a mutated APC gene that causes a constitutively active β-catenin. A control cell line was generated using another plasmid construct containing the luciferase gene under the control of a CMV basal promoter which is not activated by β-catenin.
Colo 205 Cultured cells with a stably transfected reporter construct were plated at approximately 10,000 cells per well into 384 well multi-well plates for twenty four hours. The testing compounds were then added to the wells in 2-fold serial dilutions using a twenty micromolar top concentration. A series of control wells for each cell type received only compound solvent. Five hours after the addition of compound, reporter activity for luciferase was assayed, by addition of the SteadyGlo luminescence reagent (Promega). The reporter luminescence activity was measured using Pherastar plate reader (BMG Labtech). Readings were normalized to DMSO only treated cells, and normalized activities were then used in the IC50 calculations. The Colo 205 reporter assay data are summarized in Table 3: A<0.3 μM; 0.3 μM≤B<1.0 μM; 1.0 μM≤C<5.0 μM; D≥5.0 μM.

[2] = system: XBP1(u)-luciferase splicing reporter in HepG2 hepatoma cells; experiment: HepG2 XBP1 reporter assay (XBP1(u)-Luc); format: cell-based; conditions: Homo sapiens, 6 hours after compound addition, Table 3, read-out: XBP1-luc HepG2 1 EC50

Structure (SMILES)	IC50 ([1]; Homo sapiens)	EC50 [2]	IC50 [1]
Cc1cc(N2CCCOCC2c2ccc(OCCC(C)(C)O)cc2Cl)nc(N)n1 (racemic) [I-230, (+/−)-4-[4-[4-(2-amino-6-methyl-pyrimidin-4-yl)-1,4-oxazepan-3-yl]-3-chloro-phenoxy]-2-methyl-butan-2-ol]	300 to 1000 nM	< 600 nM	–
CC(=O)Nc1cc(C2COCCCN2c2cc(C)nc(N)n2)c(Cl)cc1F (racemic) [I-85, N-[5-[4-(2-amino-6-methyl-pyrimidin-4-yl)-1,4-oxazepan-3-yl]-4-chloro-2-fluoro-phenyl]acetamide]	300 to 1000 nM	600 to 2000 nM	–
CCc1ccccc1C1CCCCCN1c1cc(C)nc(N)n1 (racemic) [I-45, (+/−)-4-(2-(2-ethylphenyl)azepan-1-yl)-6-methylpyrimidin-2-amine]	300 to 1000 nM	600 to 2000 nM	–
Cc1cc(N2CCCOCC2c2cc(N3CC[C@H](O)C3)ccc2Cl)nc(N)n1 (stereo partly drawn) [I-234, (3S)-1-[3-[4-(2-amino-6-methyl-pyrimidin-4-yl)-1,4-oxazepan-3-yl]-4-chloro-phenyl]pyrrolidin-3-ol]	300 to 1000 nM	< 600 nM	–
Cc1cc(N2CCCOC[C@@H]2c2ccc(C#N)cc2Cl)nc(N)n1 (single isomer, unassigned) [I-97]	300 to 1000 nM	–	–
Cc1cc(N2CCCOCC2c2ccc(C(=O)N3CCCC3)cc2Cl)nc(N)n1 (racemic) [I-151, (+/−)-(4-(4-(2-amino-6-methylpyrimidin-4-yl)-1,4-oxazepan-3-yl)-3-chlorophenyl)(pyrrolidin-1-yl)methanone]	300 to 1000 nM	–	–
CSc1ccccc1C1CCCCCN1c1cc(C)nc(N)n1 (racemic) [I-5, (+/−)-4-methyl-6-(2-(2-(methylthio)phenyl)azepan-1-yl)pyrimidin-2-amine]	300 to 1000 nM	–	–
Cc1cc(N2CCCOCC2c2ccc(C(=O)N(C)C3CCOCC3)cc2Cl)nc(N)n1 (racemic) [I-153, (+/−)-4-(4-(2-amino-6-methylpyrimidin-4-yl)-1,4-oxazepan-3-yl)-3-chloro-N-methyl-N-(tetrahydro-2H-pyran-4-yl)benzamide]	300 to 1000 nM	–	–
COc1ccc(F)cc1C1COCCCN1c1cc(C)nc(N)n1 (centres unmarked) [I-284]	300 to 1000 nM	–	–
Cc1cc(N2CCCOCC2c2cc3c(cc2Cl)OCO3)nc(N)n1 (racemic) [I-113, (+/−)-4-[3-(6-chloro-1,3-benzodioxol-5-yl)-1,4-oxazepan-4-yl]-6-methyl-pyrimidin-2-amine]	300 to 1000 nM	–	–
Cc1cc(N2CCCOCC2c2cc([S+](C)[O-])ccc2Cl)nc(N)n1 (centres unmarked) [I-123]	–	–	300 to 1000 nM
COc1ccc(Cl)cc1C1COCCCN1c1cc(C)nc(N)n1 (centres unmarked) [I-291]	300 to 1000 nM	–	–
Cc1cc(N2CCCOCC2c2ccc(C(=O)N(C)C)cc2Cl)nc(N)n1 (centres unmarked) [I-293]	300 to 1000 nM	–	–
COc1cc(S(C)(=O)=O)ccc1C1CCCCCN1c1cc(C)nc(N)n1 (racemic) [I-88, (+/−)-4-(2-(2-methoxy-4-(methylsulfonyl)phenyl)azepan-1-yl)-6-methylpyrimidin-2-amine]	300 to 1000 nM	–	–
COC(=O)c1ccc(C2COCCCN2c2cc(C)nc(N)n2)c(OC)c1 (centres unmarked) [I-290]	300 to 1000 nM	–	–
Cc1cc(N2CCCOCC2c2cc(NC(=O)OC(C)(C)C)ccc2Cl)nc(N)n1 (centres unmarked) [I-158]	300 to 1000 nM	–	–
Cc1cc(N2CCCOCC2c2ccc(S(C)(=O)=O)cc2Cl)nc(N)n1 (racemic) [I-66, (+/−)-4-(3-(2-chloro-4-(methylsulfonyl)phenyl)-1,4-oxazepan-4-yl)-6-methylpyrimidin-2-amine]	1000 to 5000 nM	–	–
COc1ccc(Cl)cc1[C@H]1COCCCN1c1cc(C)nc(N)n1 [I-132, (S)-4-(3-(5-chloro-2-methoxyphenyl)-1,4-oxazepan-4-yl)-6-methylpyrimidin-2-amine]	300 to 1000 nM	–	–
COC(=O)c1ccc(Cl)c(C2COCCCN2c2cc(C)nc(N)n2)c1 (racemic) [I-126, (+/−)-Methyl 3-(4-(2-amino-6-methylpyrimidin-4-yl)-1,4-oxazepan-3-yl)-4-chlorobenzoate]	300 to 1000 nM	–	–
COCC(=O)Nc1ccc(Cl)c(C2COCCCN2c2cc(C)nc(N)n2)c1 (centres unmarked) [I-90]	300 to 1000 nM	–	–
Cc1cc(Nc2ccc(Cl)c(C3COCCCN3c3cc(C)nc(N)n3)c2)nc(N)n1 (centres unmarked) [I-294]	300 to 1000 nM	–	–
Cc1cc(N2CCCOCC2c2cc([S+](C)[O-])ccc2Cl)nc(N)n1 (centres unmarked) [I-122]	300 to 1000 nM	–	–
COc1ccc(C(=O)N(C)C)cc1C1CCCCCN1c1cc(C)nc(N)n1 (racemic) [I-115, (+/−)-3-(1-(2-amino-6-methylpyrimidin-4-yl)azepan-2-yl)-4-methoxy-N,N-dimethylbenzamide]	300 to 1000 nM	–	–
COC(=O)c1ccc(OC)c(C2CCCCCN2c2cc(C)nc(N)n2)c1 (racemic) [I-111, (+/−)-Methyl 3-(1-(2-amino-6-methylpyrimidin-4-yl)azepan-2-yl)-4-methoxybenzoate]	300 to 1000 nM	–	–
Cc1cc(N2CCCOC[C@H]2c2cc(C(O)C(F)(F)F)ccc2Cl)nc(N)n1 (single isomer, unassigned) [I-146]	300 to 1000 nM	–	–
COc1ccc(Cl)c([C@H]2CCCCCN2c2cc(C)nc(N)n2)c1 (single isomer, unassigned) [I-135]	300 to 1000 nM	–	–
CNC(=O)c1ccc(Cl)c(C2COCCCN2c2cc(C)nc(N)n2)c1 (racemic) [I-129, (+/−)-3-(4-(2-amino-6-methylpyrimidin-4-yl)-1,4-oxazepan-3-yl)-4-chloro-N-methylbenzamide]	300 to 1000 nM	–	–

Further lines, results first:

IC50 ([1]; Homo sapiens)	EC50 [2]	IC50 [1]	Structure (SMILES)
< 300 nM	600 to 2000 nM	–	Cc1cc(N2CCCOCC2c2cc(NC(=O)CC(C)(C)O)ccc2Cl)nc(N)n1 (racemic) [I-251, (+/−)-N-[3-[4-(2-amino-6-methyl-pyrimidin-4-yl)-1,4-oxazepan-3-yl]-4-chloro-phenyl]-3-hydroxy-3-methyl-butanamide]
300 to 1000 nM	2000 to 5000 nM	–	COc1ccc(F)cc1[C@@H]1CCCCCN1c1cc(C)nc(N)n1 [I-285]
< 300 nM	< 600 nM	–	Cc1cc(N2CCCOC[C@H]2c2ccc(NC(=O)C(C)(C)O)cc2Cl)nc(N)n1 (racemic) [I-277, (+/−)-N-(4-(4-(2-amino-6-methylpyrimidin-4-yl)-1,4-oxazepan-3-yl)-3-chlorophenyl)-2-hydroxy-2-methylpropanamide]
< 300 nM	< 600 nM	–	Cc1cc(N2CCCOC[C@@H]2c2ccc(NCC3(O)CCC3)cc2Cl)nc(N)n1 [I-263, 1-[[4-[(3S)-4-(2-amino-6-methyl-pyrimidin-4-yl)-1,4-oxazepan-3-yl]-3-chloro-anilino]methyl]-cyclobutanol]
< 300 nM	< 600 nM	–	Cc1cc(N2CCCOCC2c2cc(NCCCO)ccc2Cl)nc(N)n1 (racemic) [I-249, (+/−)-3-[3-[4-(2-amino-6-methyl-pyrimidin-4-yl)-1,4-oxazepan-3-yl]-4-chloro-anilino]propan-1-ol]
300 to 1000 nM	< 600 nM	–	Cc1cc(N2CCCCCC2c2ccccc2Br)nc(N)n1 (centres unmarked) [I-69]
< 300 nM	600 to 2000 nM	–	COc1ccccc1C1CCCCCN1c1cc(C)nc(N)n1 (centres unmarked) [I-124]
300 to 1000 nM	≥ 5000 nM	–	COc1c(F)cccc1C1CCCCCN1c1cc(C)nc(N)n1 (centres unmarked) [I-287]
< 300 nM	< 600 nM	–	CC(=O)N(C)Cc1ccc(C2COCCCN2c2cc(C)nc(N)n2)c(Cl)c1 (racemic) [I-254, (+/−)-N-(4-(4-(2-amino-6-methylpyrimidin-4-yl)-1,4-oxazepan-3-yl)-3-chlorobenzyl)-N-methylacetamide]
< 300 nM	< 600 nM	–	Cc1cc(N2CCCOCC2c2ccc(C3CCOC3)cc2Cl)nc(N)n1 (racemic) [I-238, (+/−)-4-(3-(2-chloro-4-(tetrahydrofuran-3-yl)phenyl)-1,4-oxazepan-4-yl)-6-methylpyrimidin-2-amine]
< 300 nM	–	–	COc1ccc(O)cc1[C@H]1CCCCCN1c1cc(C)nc(N)n1 (single isomer, unassigned) [I-127]
< 300 nM	–	–	CNC(=O)c1ccc(C2COCCCN2c2cc(C)nc(N)n2)c(Cl)c1 (centres unmarked) [I-106]
< 300 nM	–	–	CNC(=O)c1ccc(OC)c([C@H]2CCCCCN2c2cc(C)nc(N)n2)c1 [I-148, (R)-3-(1-(2-amino-6-methylpyrimidin-4-yl)azepan-2-yl)-4-methoxy-N-methylbenzamide]
< 300 nM	–	–	CC(=O)Nc1ccc(Cl)c(C2COCCCN2c2cc(C)nc(N)n2)c1 (centres unmarked) [I-84]
< 300 nM	–	–	COc1ccc(O)cc1C1CCCCCN1c1cc(C)nc(N)n1 (centres unmarked) [I-107, 3-[1-(2-amino-6-methyl-pyrimidin-4-yl)azepan-2-yl]-4-methoxy-phenol]
< 300 nM	–	–	CC(=O)Nc1ccc(C2COCCCN2c2cc(C)nc(N)n2)c(Cl)c1 (racemic) [I-141, (+/−)-N-(4-(4-(2-amino-6-methylpyrimidin-4-yl)-1,4-oxazepan-3-yl)-3-chlorophenyl)acetamide]
< 300 nM	–	–	Cc1cc(N2CCC(C)OCC2c2ccccc2Cl)nc(N)n1 (centres unmarked) [I-301]
< 300 nM	–	–	Cc1cc(N2CCCOC[C@@H]2c2ccccc2Cl)nc(N)n1 (single isomer, unassigned) [I-31]
